Assay results reported in US20200131144A1, “AMINE OR (THIO)AMIDE CONTAINING LXR MODULATORS” (Phenex-FXR GmbH, priority 2017, published 2020).

Assays:
[1] = target: T1, GST-LXRβ ligand-binding domain (Homo sapiens, UniProt P55055, INS174Q); assay: TR-FRETβ activity assay (NCoA3 coactivator peptide recruitment); type: biochemical; details: 1 μM 24(S)-25-epoxycholesterol as prestimulating agonist; inverse agonist unless *
T1 construct: amino acids 156-461; NP009052; made in house; host or cells: E. coli
T1 sequence (P55055 with tags, fused parts or gaps INS174Q limits assumed): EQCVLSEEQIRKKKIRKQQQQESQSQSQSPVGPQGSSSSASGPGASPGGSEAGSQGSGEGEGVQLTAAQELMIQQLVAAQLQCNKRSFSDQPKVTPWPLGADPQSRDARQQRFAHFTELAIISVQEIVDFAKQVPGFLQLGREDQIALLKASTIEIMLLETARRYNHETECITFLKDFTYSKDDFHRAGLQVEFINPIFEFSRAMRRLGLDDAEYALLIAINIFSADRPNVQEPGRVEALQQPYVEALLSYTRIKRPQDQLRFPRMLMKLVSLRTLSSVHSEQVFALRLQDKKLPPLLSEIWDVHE
Experimental: The tested compounds were usually dissolved, tested and stored as 20 mM stock solutions in DMSO. […] Sulfonyl acetic acid derivatives are shelf stable as solid at rt for long time as reported by Griesbrecht et al. (Synlett 2010:374) or Faucher et al. (J. Med. Chem. 2004; 47:18). TR-FRETβ Activity Assay Recombinant GST-LXRβ ligand-binding domain (LBD; amino acids 156-461; NP009052; SEQ ID NO:4) was expressed in E. coli and purified via gluthatione-sepharose affinity chromatography. N-terminally biotinylated NCoA3 coactivator peptide (SEQ ID NO:7) was chemically synthesized (Eurogentec). […] Finally, a detection mix was added containing anti GST-Tb cryptate (CisBio; 610SAXLB) and Streptavidin-XL665 (CisBio; 610SAXLB) as fluorescent donor and acceptor, respectively, as well as the coactivator peptide and LXRβ-LBD protein (SEQ ID NO:4). The reaction was mixed thoroughly, equilibrated for 1 h at 4° C. and vicinity of LXRβ and coactivator peptide was detected by measurement of fluorescence in a VictorX4 multiplate reader (PerkinElmer Life Science) using 340 nm as excitation and 615 and 665 nm as emission wavelengths. Assays were performed in triplicates. Final Assay Concentrations of Components: 240 mM KCl, 1 μg/μL BSA, 0.002% Triton-X-100, 125 pg/μL anti GST-Tb cryptate, 2.5 ng/μL Streptavidin-XL665, coactivator peptide (400 nM), LXRP protein ([…], i.e. 76 nM).

[2] = target: T2, LXRα full length (FL) (Homo sapiens, UniProt Q13133); assay: LXR Gal4 reporter transient transfection assay, mammalian two-hybrid, FL-M2H Gal4α; type: cell-based; details: HEK293 cells; inverse agonist unless *
T2 construct: the full length (FL) proteins of LXRα (amino acids 1-447); NP005684; expressed in transfected cells; host or cells: HEK293
T2 sequence (Q13133 1-447): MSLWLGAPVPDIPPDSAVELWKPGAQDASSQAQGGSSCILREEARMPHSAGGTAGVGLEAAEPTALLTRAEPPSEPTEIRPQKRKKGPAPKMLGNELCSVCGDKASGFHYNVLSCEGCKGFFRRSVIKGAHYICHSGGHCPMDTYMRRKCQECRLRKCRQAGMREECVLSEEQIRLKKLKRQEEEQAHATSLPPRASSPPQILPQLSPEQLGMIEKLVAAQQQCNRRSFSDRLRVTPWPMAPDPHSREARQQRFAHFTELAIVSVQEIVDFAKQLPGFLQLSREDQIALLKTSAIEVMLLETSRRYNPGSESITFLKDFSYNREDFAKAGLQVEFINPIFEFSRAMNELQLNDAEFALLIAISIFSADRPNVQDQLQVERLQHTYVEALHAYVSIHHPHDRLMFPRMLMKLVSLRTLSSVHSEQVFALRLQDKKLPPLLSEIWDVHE
Experimental: (§1) The tested compounds were usually dissolved, tested and stored as 20 mM stock solutions in DMSO. Since sulfonyl acetic acid derivatives tend to decarboxylate under these conditions, these stock solutions were prepared, tested and stored as 20 mM DMSO stock solutions containing 100 mM trifluoroacetic acid (5 equivalents). Sulfonyl acetic acid derivatives are shelf stable as solid at rt for long time as reported by Griesbrecht et al. (Synlett 2010:374) or Faucher et al. (J. Med. Chem. 2004; 47:18).
(§2) LXR Gal4 Reporter Transient Transfection Assays
(§3) LXRα and LXRβ activity status was determined via detection of interaction with coactivator and corepressor proteins in mammalian two-hybrid experiments (M2H). For this, via transient transfection the full length (FL) proteins of LXRα (amino acids 1-447; NP005684; SEQ ID NO:1) or LXRβ-(amino acids 1-461; NP009052; SEQ ID NO:2) or the ligand-binding domains (LBD) of LXRα (amino acids 155-447 SEQ ID NO:3) or LXR (amino acids 156-461; SEQ ID NO:4) were expressed from pCMV-AD (Stratagene) as fusions to the transcriptional activation domain of NFkB. As cofactors, domains of either the steroid receptor coactivator 1 (SRC1; amino acids 552-887; SEQ ID NO:5) or of the corepressor NCoR (amino acids 1906-2312; NP006302; SEQ ID NO:6) were expressed as fusions to the DNA binding domain of the yeast transcription factor GAL4 (from pCMV-BD; Stratagene). Interaction was monitored via activation of a coexpressed Firefly Luciferase Reporter gene under control of a promoter containing repetitive GAL4 response elements (vector pFRLuc; Stratagene). Transfection efficiency was controlled via cotransfection of constitutively active pRL-CMV Renilla reniformis luciferase reporter (Promega). HEK293 cells were grown in minimum essential medium (MEM) with 2 mM L-glutamine and Earle's balanced salt solution supplemented with 8.3% fetal bovine serum, 0.1 mM non-essential amino acids, 1 mM sodium pyruvate, at 37° C. in 5% CO2. 3.5×10^4 cells/well were plated in 96-well cell culture plates in growth medium supplemented with 8.3% fetal bovine serum for 16-20 h to—90% confluency. For transfection, medium was taken off and LXR and cofactor expressing plasmids as well as the reporter plasmids are added in 30 μL OPTIMEM/well including polyethylene-imine (PEI) as vehicle. Typical amounts of plasmids transfected/well: pCMV-AD-LXR (5 ng), pCMV-BD-cofactor (5 ng), pFR-Luc (100 ng), pRL-CMV (0.5 ng). Compound stocks were prepared in DMSO, prediluted in MEM to a total volume of 120 μL, and added 4 h after addition of the transfection mixture (final vehicle concentration not exceeding 0.2%). Cells were incubated for additional 16 h, lysed for 10 min in 1×Passive Lysis Buffer (Promega) and Firefly and Renilla luciferase activities were measured sequentially in the same cell extract using buffers containing D-luciferine and coelenterazine, respectively. Measurements of luminescence were done in a BMG-luminometer.

[3] = target: T3, LXRβ full length (FL) (Homo sapiens, UniProt P55055, INS174Q); assay: LXR Gal4 reporter transient transfection assay, mammalian two-hybrid, FL-M2H Gal4β; type: cell-based; details: HEK293 cells; inverse agonist unless *
T3 construct: the full length (FL) proteins of LXRα (amino acids 1-447); NP005684; NP009052; expressed in transfected cells; host or cells: HEK293
T3 sequence (P55055 with tags, fused parts or gaps INS174Q): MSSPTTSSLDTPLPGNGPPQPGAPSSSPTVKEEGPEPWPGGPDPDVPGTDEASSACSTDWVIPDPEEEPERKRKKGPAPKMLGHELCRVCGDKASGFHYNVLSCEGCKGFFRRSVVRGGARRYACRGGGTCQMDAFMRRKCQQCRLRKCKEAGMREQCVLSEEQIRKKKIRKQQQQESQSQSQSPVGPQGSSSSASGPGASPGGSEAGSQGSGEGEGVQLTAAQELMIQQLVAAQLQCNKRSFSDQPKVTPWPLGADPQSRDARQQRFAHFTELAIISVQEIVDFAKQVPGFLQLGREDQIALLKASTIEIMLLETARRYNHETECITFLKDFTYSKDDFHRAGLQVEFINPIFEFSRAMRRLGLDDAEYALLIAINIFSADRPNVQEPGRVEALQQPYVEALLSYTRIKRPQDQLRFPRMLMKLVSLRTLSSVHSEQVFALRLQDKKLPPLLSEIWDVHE
Experimental: as §1, §2, §3

EC50 [1] [nM]	EC50 [2] [nM]	EC50 [3] [nM]	Structure (SMILES)
100 to 1000	1000 to 10000	100 to 1000	O=C(O)CS(=O)(=O)c1cccc(-c2ccc(CN(Cc3ccc(C(F)(F)F)o3)C(=O)c3c(OC(F)F)ccc4ccccc34)cc2)c1 [27/42]
1000 to 10000	100 to 1000	100 to 1000	Cc1cc(C(=O)N(Cc2ccc(-c3cccc(C(C)(C)C(=O)O)c3)cc2)Cc2ccc(C(F)(F)F)o2)c2ccc(F)cc2n1 [27/127]
1000 to 10000	1000 to 10000	100 to 1000	Cc1cc(C)c(CN(Cc2ccc(-c3cccc(S(=O)(=O)CC(=O)O)c3)cc2)Cc2ccc(C(F)(F)F)o2)c(C)c1C [27/34]
< 100	100 to 1000	< 100	Cc1cc(C)c(CN(Cc2ccc(-c3cccc(S(=O)(=O)CC(=O)N(C)O)c3)cc2)Cc2ccc(C(F)(F)F)o2)c(C)c1 [5/2]
100 to 1000	< 100	< 100	CC(C)(C(=O)O)c1cccc(-c2ccc(CN(Cc3ccc(C(F)(F)F)o3)Cc3cccc4c3CCOC4)cc2)c1 [27/15]
1000 to 10000	100 to 1000	< 100	Cc1ccc(CN(Cc2ccc(-c3cccc(C(C)(C)C(=O)O)c3)cc2)C(=O)c2c(C)c(C)nc3cccnc23)o1 [27/132]
> 10000	1000 to 10000	100 to 1000	COc1cc(CN(Cc2ccc(C(F)(F)F)o2)Cc2c(C)ccc3ccccc23)ccc1-c1cc(F)c(CO)c(S(=O)(=O)CC(=O)O)c1 [Example 22, 2-((5-Fluoro-4-(hydroxymethyl)-2′-methoxy-4′-((((2-methylnaphthalen-1-yl)methyl)((5-(trifluoromethyl)furan-2-yl)methyl)amino)methyl)-[1,1′-biphenyl]-3-yl)sulfonyl)acetic acid]
< 100	< 100	< 100	CCc1cc(C)c(CN(Cc2ccc(-c3cccc(C(C)(C)C(=O)O)c3)cc2)Cc2ccc(C(F)(F)F)o2)c(C)c1 [27/32]
> 10000	100 to 1000	1000 to 10000	Cc1ccc2ccccc2c1C(=O)N(Cc1ccc(-c2cccc(S(=O)(=O)CC(=O)O)c2)cc1)Cc1ccc(C(F)(F)F)n1C [Example 28, 2-((4′-((2-Methyl-N-((1-methyl-5-(trifluoromethyl)-1H-pyrrol-2-yl)methyl)-1-naphthamido)methyl)-[1,1′-biphenyl]-3-yl)sulfonyl)acetic acid]
100 to 1000	< 100	< 100	Cc1nc2cccnc2c(C(=O)N(Cc2ccc(-c3cccc(C(C)C(=O)O)c3)cc2)Cc2ccc(C(F)(F)F)o2)c1C (stereo not drawn) [27/110]
100 to 1000	1000 to 10000	1000 to 10000	Cc1ccc2ccccc2c1C(=O)N(Cc1ccc(-c2cccc(S(=O)(=O)CC(=O)NS(C)(=O)=O)c2)cc1)Cc1ccc(C(F)(F)F)o1 [5/4]
1000 to 10000	100 to 1000	100 to 1000	Cc1nc2ccccc2c(C(=O)N(Cc2ccc(-c3cccc(C(C)(C)C(=O)O)c3)cc2)Cc2ccc(C(F)(F)F)o2)c1O [27/120]
1000 to 10000	100 to 1000	100 to 1000	O=C(O)CS(=O)(=O)c1cccc(-c2ccc(CN(Cc3ccc(C(F)(F)F)o3)Cc3cccc4ccccc34)cc2)c1 [7/2]
1000 to 10000	100 to 1000	< 100	COc1ccc2c(CN(Cc3ccc(-c4cccc(C(C)(C)C(=O)O)c4)cc3)Cc3ccc(C(F)(F)F)o3)cc(C)cc2c1 [27/24]
1000 to 10000	< 100	< 100	COC(C)(C(=O)O)c1cccc(-c2ccc(CN(Cc3ccc(C(F)(F)F)o3)C(=O)c3c(C)ccc4ccccc34)cc2)c1 (stereo not drawn) [27/11]
100 to 1000	1000 to 10000	100 to 1000	O=C(O)CS(=O)(=O)c1cccc(-c2ccc(CN(Cc3ccc(C(F)(F)F)o3)Cc3c(Cl)cccc3Cl)cc2)c1 [7/10]
100 to 1000	100 to 1000	100 to 1000	COc1ccc2ccccc2c1CN(Cc1ccc(-c2cccc(S(=O)(=O)CC(=O)O)c2)cc1)Cc1ccc(C(F)(F)F)o1 [7/5]
100 to 1000	100 to 1000	100 to 1000	Cc1cc(C)c(CN(Cc2ccc(-c3cccc(S(=O)(=O)CC(=O)NO)c3)cc2)Cc2ccc(C(F)(F)F)o2)c(C)c1 [Example 5, N-Hydroxy-2-((4′-((((5-(trifluoromethyl)furan-2-yl)methyl)(2,46-trimethylbenzyl)amino)methyl)-[1,1′-biphenyl]-3-yl)sulfonyl)acetamide]
1000 to 10000	< 100	< 100	COc1nc(-c2cccc(C(C)(C)C(=O)O)c2)ccc1CN(Cc1ccc(C(F)(F)F)o1)C(=O)c1c(C)ccc2ccccc12 [27/77]
1000 to 10000	100 to 1000	100 to 1000	Cc1nc2cccnn2c1C(=O)N(Cc1ccc(-c2cccc(C(C)(C)C(=O)O)c2)cc1)Cc1ccc(C(F)(F)F)o1 [27/116]
